The text below walks through data of patent EP3057950B1, “PHENYL LINKED QUINOLINYL MODULATORS OF ROR-GAMMA-T” (Janssen Pharmaceutica NV, priority 2013, dated 2015).

For test [1], the target named is T1, wild type human RORγt ligand binding domain (RORγt LBD) (Homo sapiens, UniProt P51449).
T1 construct: His-tag (N); TurboTEV protease cleavage site (ENLYFQG) (N); made in house; host or cells: E. coli (pHIS1, modified pET expression vector)
T1 sequence (P51449 269-508 limits assumed): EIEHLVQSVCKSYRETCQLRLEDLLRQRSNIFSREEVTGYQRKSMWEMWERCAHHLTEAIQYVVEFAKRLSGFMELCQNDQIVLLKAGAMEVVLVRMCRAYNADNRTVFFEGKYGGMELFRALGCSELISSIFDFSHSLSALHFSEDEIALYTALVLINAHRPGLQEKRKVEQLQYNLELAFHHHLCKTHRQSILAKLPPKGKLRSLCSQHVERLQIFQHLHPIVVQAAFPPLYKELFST
Kind of test: RORγt ThermoFluor® Assay (thermal shift, binding affinity). To be noted: pH 7.0, estimated from concentration response curves. The procedure:
This approach is applicable to a wide variety of systems, and rigorous in theoretical interpretation through quantitation of equilibrium binding constants (KD).
The shift in the melting point described as a ΔTm is proportional to the concentration and affinity of the ligand.
Protein and compound solutions are dispensed into black 384-well polypropylene PCR microplates (Abgene) and overlayed with silicone oil (1 µL, Fluka, type DC 200) to prevent evaporation.
Bar-coded assay plates are robotically loaded onto a thermostatically controlled PCR-type thermal block and then heated at a typical ramp-rate of 1 °C/min for all experiments. Fluorescence was measured by continuous illumination with UV light (Hamamatsu LC6) supplied via fiber optic and filtered through a band-pass filter (380-400 nm; >6 OD cutoff). Fluorescence emission of the entire 384-well plate was detected by measuring light intensity using a CCD camera (Sensys, Roper Scientific) filtered to detect 500 ± 25 nm, resulting in simultaneous and independent readings of all 384 wells. Images were collected at each temperature, and the sum of the pixel intensity in a given area of the assay plate was recorded versus temperature. Reference wells contained RORγt without compounds, and the assay conditions were as follows: • 0.065 mg/mL RORγt • 60 µM 1,8-ANS • 100 mM Hepes, pH 7.0 • 10 mM NaCl • 2.5 mM GSH • 0.002% Tween-20
Project compounds were arranged in a pre-dosed mother plate (Greiner Bio-one) wherein compounds are serially diluted in 100% DMSO by 1:2 from a high concentration of 10 mM over 12 columns within a series (column 12 is a reference well containing DMSO, no compound). The compounds were robotically dispensed directly into assay plates (1x = 46 nL) using a Hummingbird capillary liquid handling instrument (Digilab). Following compound dispense, protein and dye in buffer was added to achieve the final assay volume of 3 µL, followed by 1 µL of silicone oil.

The target of test [2] is T2, wild type human RORγt LBD (Homo sapiens, UniProt P51449).
T2 construct: expressed in transfected cells; host or cells: HEK293T
T2 sequence (P51449 269-508 limits assumed): T1 sequence (P51449 269-508 limits assumed)
Kind of test: RORγt Reporter Assay (GAL4-RORγt LBD luciferase in HEK293T cells). The test is classed as cell-based. To be noted: HEK293T cells; for IC50: compounds for 24 hours, read-out: RORγt reporter Assay, IC50; for inhibition at 6 µM: HEK-293T, read-out: RORγt reporter Assay, % inhibition @ 6 µM, @ 6 µM. The source says: A reporter assay was used to test functional activity of RORγt modulatory compounds on transcriptional activation driven by the RORγt LBD. Cells used in the assay were co-transfected with two constructs. The first construct, pBIND-RORγt LBD, contained the wild type human RORγt LBD fused to the DNA binding domain of the GAL4 protein. The second construct, pGL4.31 (Promega Cat no. C935A), contained multiple GAL4 responsive DNA elements upstream of firefly luciferase. […] The mutant construct was called pBIND-RORγt-AF2.
The pBIND vector contains the GAL4 DNA Binding Domain (GAL4 DBD) and the renilla luciferase gene under control of the SV40 promoter. Renilla luciferase expression serves as a control for transfection efficiency and cell viability.
The reporter assay was performed by transiently transfecting HEK293T cells with 5 µg of pBIND-RORγt LBD or pBIND-RORγt LBD-AF2 and 5 µg pGL4.31 (Promega Cat no. C935A) using Fugene 6 (Invitrogen Cat no. E2691) at a 1:6 ratio of DNA: Fugene 6 in a T-75 flask in which cells were at least 80% confluent. Twenty four hours after bulk transfection, cells were plated into 96-well plates at 50,000 cells/well in phenol-red free DMEM containing 5% Lipid Reduced FCS and Pen/Strep. Six hours after plating, cells were treated with compounds for 24 hours. Media was removed and cells were lysed with 50 µL 1x Glo Lysis Buffer (Promega). Dual Glo Luciferase Reagent (50 µL/well) was then added and firefly luciferase luminescence was read on an Envision after a ten minute incubation. Finally, Stop and Glo reagent (50 µL/well) was added and renilla luciferase luminescence was read on an Envision instrument after a ten minute incubation. To calculate the effect of compounds on RORγt activity, the ratio of firefly to renilla luciferase was determined and plotted against compound concentration. Agonist compounds increase RORγt-driven luciferase expression, and antagonist or inverse agonist compounds decrease luciferase expression.

Each structure is given as a SMILES string. “And” between values parts separate entries of the source, which are not always exact repeats. Equal entries are not always repeated. Structures can show the parent of a compound that is named as a salt.

As a reminder, the Kd is the free concentration of one partner at which half of the binding sites on the other are occupied at equilibrium, for simple one-to-one binding. In general, IC50 refers to the midpoint of a concentration-inhibition curve. Usually inhibition stands for the drop in the measured response relative to a control, in per cent. For `COc1c(-c2ccccc2)c(C(F)(F)F)nc2ccc(C(O)(c3ccc(Cl)cc3)c3cncn3C)cc12` (stereo not drawn) [Example 33a, (4-Chlorophenyl)(4-methoxy-3-phenyl-2-(trifluoromethyl)quinolin-6-yl)(1-methyl-1H-imidazol-5-yl)methanol•TFA], the dissociation constant (Kd) in test [1] is 160 nM. Moreover, in test [2], the half-maximal inhibitory concentration (IC50) is 650 nM and the inhibition at 6 µM was found to be 98%.
As for `CCCCc1c(-c2ccccc2)c(OC(C)C)nc2ccc(C(O)(c3ccncc3)c3cncn3C)cc12` (stereo not drawn) [Example 80, (4-Butyl-2-isopropoxy-3-phenylquinolin-6-yl)(1-methyl-1H-imidazol-5-yl)(pyridin4-yl)methanol•TFA], the dissociation constant Kd in test [1] is 12000 nM. Further, in test [2], the IC50 was > 6000 nM and the inhibition at 6 µM was found to be 72%.
As for `CCC(=O)NCCOc1nc2ccc(C(O)(c3ccc(Cl)cc3)c3cncn3C)cc2c(Cl)c1-c1ccccc1` (stereo not drawn) [Example 51, N-[2-({4-Chloro-6-[(4-chlorophenyl)(hydroxy)(1-methyl-1H-imidazol-5-yl)methyl]-3-phenylquinolin-2-yl}oxy)ethyl]propanamide], in test [1], the Kd is 1100 nM. Moreover, in test [2], the IC50 was 1100 nM and the inhibition at 6 µM is 96%.
For `Cn1cncc1C(O)(c1ccc2nc(C#N)c(-c3ccccc3)c(C#N)c2c1)c1ccccn1` (single isomer, unassigned) [Example 18c, 6-(Hydroxy(1-methyl-1H-imidazol-5-yl)(pyridin-2-yl)methyl)-3-phenylquinoline-2,4-dicarbonitrile], the equilibrium dissociation constant (Kd) in test [1] was 330 nM. Besides, in test [2], the “RORγt reporter Assay, % inhibition @ 6 µM” value was 95% and the concentration for half-maximal inhibition (IC50) turned out to be 850 nM.
On to `COCCN(C)c1nc2ccc(C(O)(c3ccc(Cl)cc3)c3cncn3C)cc2c(Cl)c1-c1ccccc1` (stereo not drawn) [Example 50, {4-Chloro-2-[(2-methoxyethyl)(methyl)amino]-3-phenylquinolin-6-yl}(4-chlorophenyl)(1-methyl-1H-imidazol-5-yl)methanol], for which the Kd in test [1] is 90 nM. Besides, in test [2], the IC50 was 31 nM and the inhibition at 6 µM is 99%.
Taken in the same sequence, the figures for `COc1nc2ccc(C(O)(c3ccc(C(F)(F)F)nc3)c3cncn3C)cc2c(Cl)c1-c1cnn(C)c1` (stereo not drawn) [Example 8, [4-Chloro-2-methoxy-3-(1-methyl-1H-pyrazol-4-yl)quinolin-6-yl](1-methyl-1H-imidazol-5-yl)[6-(trifluoromethyl)pyridin-3-yl]methanol•TFA] were 270 nM, 890 nM and 87%.
With `COc1nc2ccc(C(O)(c3ccc(C(F)(F)F)nc3)c3cncn3C)cc2c(Cl)c1-c1cccc(NS(C)(=O)=O)c1` (stereo not drawn) [Example 12], in test [1], the dissociation constant (Kd) was 650 nM. For the same compound, in test [2], the half-maximal inhibitory concentration (IC50) is ~2000 nM and the inhibition at 6 µM was determined as 90%.
On the same counts, the results for `CON(C)c1nc2ccc(C(O)(c3ccc(Cl)cc3)c3cncn3C)cc2c(Cl)c1-c1ccccc1` (stereo not drawn) [Example 58, {4-Chloro-2-[methoxy(methyl)amino]-3-phenylquinolin-6-yl}(4-chlorophenyl)(1-methyl-1H-imidazol-5-yl)methanol] are 220 nM, 150 nM and 99%.
As to `COc1nc2ccc(C(O)(c3ncccn3)c3cncn3C)cc2c(OC)c1-c1ccccc1` (stereo not drawn) [Example 88, (2,4-Dimethoxy-3-phenylquinolin-6-yl)(1-methyl-1H-imidazol-5-yl)(pyrimidin-2-yl)methanol], in test [1], the dissociation constant (Kd) is 20000 nM. In test [2], the IC50 was > 6000 nM and the inhibition at 6 µM was 32%.
On the same counts, the results for `CNCCN(C)c1nc2ccc(C(O)(c3ccncc3)c3cncn3C)cc2c(Cl)c1-c1ccccc1` (stereo not drawn) [Example 82] are 11000 nM, > 6000 nM and 18%.
With `CSc1nc2ccc(C(O)(c3sc(C)nc3C)c3cncn3C)cc2c(Cl)c1-c1ccccc1` (stereo not drawn) [Example 43, (4-Chloro-2-(methylthio)-3-phenylquinolin-6-yl)(2,4-dimethylthiazol-5-yl)(1-methyl-1H-imidazol-5-yl)methanol•TFA], in test [1], the Kd was 3.5 nM. Moreover, in test [2], the 50% inhibitory concentration (IC50) was determined as 39 nM and the inhibition at 6 µM is 98%.
On the same counts, the results for `CON(C)c1nc2ccc(C(O)(c3ccc(C(F)(F)F)nc3)c3cncn3C)cc2c(Cl)c1-c1ccccc1` (stereo not drawn) [Example 56, {4-Chloro-2-[methoxy(methyl)amino]-3-phenylquinolin-6-yl}(1-methyl-1H-imidazol-5-yl)[6-(trifluoromethyl)pyridin-3-yl]methanol] are 60 nM, 23 nM and 102%.
Regarding `COc1c(-c2ccccc2)c(C(F)(F)F)nc2ccc(C(O)(c3ccc(Cl)cc3)c3cncn3C)cc12` (single isomer, unassigned) [Example 33b, (4-Chlorophenyl)(4-methoxy-3-phenyl-2-(trifluoromethyl)quinolin-6-yl)(1-methyl-1H-imidazol-5-yl)methanol], in test [1], the dissociation constant (Kd) was 13000 nM. For the same compound, in test [2], the “RORγt reporter Assay, % inhibition @ 6 µM” value was found to be 64% and the 50% inhibitory concentration (IC50) is ~4000 nM.
Take `COc1c(-c2ccccc2)c(C(F)(F)F)nc2ccc(C(O)(c3ccccn3)c3cncn3C)cc12` (single isomer, unassigned) [Example 32b, (4-Methoxy-3-phenyl-2-(trifluoromethyl)quinolin-6-yl)(1-methyl-1H-imidazol-5-yl)(pyridin-2-yl)methanol]: the dissociation constant (Kd) in test [1] was 770 nM. Also, in test [2], the IC50 came to 1200 nM and the inhibition at 6 µM was 92%.
Taken in the same sequence, the figures for `Cn1cncc1C(O)(c1ccc(Cl)cc1)c1ccc2nc(Cl)c(-c3ccccn3)c(Cl)c2c1` (stereo not drawn) [Example 5, (4-Chlorophenyl)(2,4-dichloro-3-(pyridin-2-yl)quinolin-6-yl)(1-methyl-1H-imidazol-5-yl)methanol•TFA] were 620 nM, 1700 nM and 87%.
On to `COc1nc2ccc(C(O)(c3ccc(C(F)(F)F)nc3)c3cncn3C)cc2c(Cl)c1-c1ccc(NS(C)(=O)=O)cc1` (stereo not drawn) [Example 17, N-[4-(4-Chloro-6-{hydroxy(1-methyl-1H-imidazol-5-yl)[6-(trifluoromethyl)pyridin-3-yl]methyl}-2-methoxyquinolin-3-yl)phenyl]methamesulfonamide•TFA], for which, in test [1], the Kd was 26 nM. Besides, in test [2], the IC50 is 530 nM and the inhibition at 6 µM was found to be 87%.
As to `COc1c(-c2ccccc2)c(Cl)nc2ccc(C(O)(c3sc(C)nc3C)c3cnnn3C)cc12` (stereo not drawn) [Example 36], the Kd in test [1] was 0.89 nM. Moreover, in test [2], the IC50 was 11 nM and ~40 nM; the inhibition at 6 µM came to 97%.
With `OC(c1cccc(Cl)c1)(c1ccnc(C(F)(F)F)c1)c1ccc2nc(Cl)c(-c3ccccc3)c(Cl)c2c1` (stereo not drawn) [Example 77, (3-Chlorophenyl)(2,4-dichloro-3-phenylquinolin-6-yl)(2-(trifluoromethyl)pyridin-4-yl)methanol], the Kd in test [1] was 12000 nM. In addition, in test [2], the concentration for half-maximal inhibition (IC50) was > 6000 nM and the inhibition at 6 µM is 48%.
